Experimental data as given in ChEMBL document CHEMBL4041485, “Bissubvilides A and B, Cembrane-Capnosane Heterodimers from the Soft Coral Sarcophyton subviride” (J Nat Prod, 2016).
Counter-ions that a name gives are not always drawn.

Columns and labels:
Type in all cases: functional, cell-based
[1] = system: MG-63; test: Cytotoxicity against human MG63 cells by MTT assay
[2] = system: A549; test: Cytotoxicity against human A549 cells by MTT assay
[3] = system: Huh-7; test: Cytotoxicity against human HuH7 cells by CCK-8 assay

SMILES	IC50 [1] [µM]	IC50 [2] [µM]	IC50 [3] [µM]
COc1cccc2c1C(=O)c1c(O)c3c(c(O)c1C2=O)C[C@@](O)(C(=O)CO)C[C@@H]3O[C@H]1C[C@H](N)[C@H](O)[C@H](C)O1 [DOXORUBICIN HYDROCHLORIDE]	2.2	2.9	14.8
C=C(C)/C1=C/[C@H]2[C@@](C)(O)CC[C@]2(O)[C@@]2(C)CC[C@@H]3CC(C)=C4CCC5=CCC[C@@](C)(OC5=O)[C@@H](O)CC/C(C)=C/[C@@H]4[C@]3(CC1)C(=O)O2	> 30	> 25	> 50
CC1=C2CCC3=CCC[C@@](C)(OC3=O)[C@@H](O)CC/C(C)=C/[C@@H]2[C@@]23CC/C(C(C)C)=C\[C@H]4[C@@](C)(O)CC[C@]4(O)[C@@](C)(CC[C@@H]2C1)OC3=O	> 30	> 25	> 50
